The values below come from patent publication US20230365592A1 (Agios Pharmaceuticals, Inc., priority 2022, published 2023).

One assay concerns the target T1, human PAH with the R408W mutation (Homo sapiens, UniProt P00439, R408W).
T1 construct: expressed in transfected cells
T1 sequence (P00439 1-452 R408W): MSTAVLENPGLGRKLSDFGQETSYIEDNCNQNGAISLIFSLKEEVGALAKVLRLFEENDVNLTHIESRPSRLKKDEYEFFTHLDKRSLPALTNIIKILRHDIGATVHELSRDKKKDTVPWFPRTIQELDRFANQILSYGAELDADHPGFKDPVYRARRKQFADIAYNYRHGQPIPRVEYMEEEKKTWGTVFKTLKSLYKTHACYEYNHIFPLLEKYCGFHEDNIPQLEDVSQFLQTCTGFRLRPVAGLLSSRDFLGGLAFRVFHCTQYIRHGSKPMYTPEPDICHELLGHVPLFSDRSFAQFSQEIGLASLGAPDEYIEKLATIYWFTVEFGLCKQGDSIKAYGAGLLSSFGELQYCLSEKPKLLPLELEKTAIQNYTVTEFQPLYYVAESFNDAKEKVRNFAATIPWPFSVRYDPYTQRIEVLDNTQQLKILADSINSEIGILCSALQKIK
In words: Cell Based Phenylalanine Flux Assay.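 Further: after compound treatment, cells received sepiapterin plus isotope-labelled Phenylalanine for 4 hours, then labelled Tyrosine in the medium was quantified, 10-point 2-fold dilution series run in duplicate.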 The following applies: A375 cells expressing R408W PAH; 24 hrs with compound, then 20 µM sepiapterin and 800 µM 13C9,15N-Phenylalanine for 4 hours; 13C-Tyrosine by LC-MS; average where tested multiple times; read-out: AC50.
With `CC(C)(O)c1nnc(C(=O)N2CCc3[nH]cnc3C2c2cc3c(F)cccn3n2)o1` (stereo not drawn), the concentration at half-maximal activity (AC50) lay within 1000 to 5000 nM.
Regarding `Cc1ccn2nc(C3c4nc[nH]c4CCN3C(=O)c3nnc(C4CC4)o3)cc2c1` (stereo not drawn), the AC50 lay within 1000 to 5000 nM.
As for `Fc1cccnc1-c1nnc(N2CCc3[nH]cnc3C2c2cc3c(C4CC4)cccn3n2)o1` (stereo not drawn), the AC50 is > 5000 nM.
Regarding `CC(C)c1cccn2nc(C3c4nc[nH]c4CCN3c3cnccn3)cc12` (stereo not drawn), the AC50 was > 5000 nM.
In the case of `Cn1ccc(-c2nc(C(F)F)c(C(=O)N3CCc4[nH]cnc4C3c3cc4ccccn4n3)o2)n1` (stereo not drawn), the AC50 is > 5000 nM.
Same read-out and setting: then `CC(C)c1nnc(C(=O)N2CCc3[nH]cnc3C2c2cc3c(C(F)F)cccn3n2)o1` (stereo not drawn), with > 5000 nM.
The same measure, in the same setting: to `Cn1ccc(-c2nnc(C(=O)N3CCc4[nH]cnc4C3c3cc4cc(F)ccn4n3)o2)n1` (stereo not drawn) belongs > 5000 nM; to `CC(C)(O)c1nnc(C(=O)N2CCc3[nH]cnc3C2c2cc3cc(F)ccn3n2)o1` (stereo not drawn), > 5000 nM; to `FC(F)c1cccn2nc(C3c4nc[nH]c4CCN3c3nnc(-c4cccnc4)o3)cc12` (stereo not drawn), 1000 to 5000 nM.
Still for that read-out and setting: to `Cc1ncccc1-c1nnc(N2CCc3[nH]cnc3C2c2cc3ccccn3n2)o1` (stereo not drawn) belongs 1000 to 5000 nM.
As to `CN(C)CCc1ccc2c(C(=O)N3CCc4[nH]cnc4[C@H]3c3cc4ccccn4n3)cnn2c1` (single isomer, unassigned), the AC50 was > 5000 nM.
Same read-out and setting: to `COc1ccc2c(C(=O)N3CCc4[nH]cnc4C3c3cc4cccc(C(F)F)n4n3)cnn2c1` (stereo not drawn) belongs 1000 to 5000 nM.
The same measure, in the same setting: to `COc1ccc2c(C(=O)N3CCc4[nH]cnc4C3c3cc4c(OC)cccn4n3)cnn2c1` (stereo not drawn) belongs > 5000 nM.

Still in this assay, the particulars now being: A375 cells expressing human PAH R408W; 24 hrs compound incubation; 13C-Tyrosine by LC-MS; average where tested multiple times; read-out: AC50.
Consider `Cc1ncccc1-c1nnc(N2CCc3[nH]cnc3[C@@H]2c2cc3cccc(C)n3n2)o1` [Example 2333, (R)-2-(4-(7-methylpyrazolo[1,5-a]pyridin-2-yl)-1,4,6,7-tetrahydro-5H-imidazo[4,5-c]pyridin-5-yl)-5-(2-methylpyridin-3-yl)-1,3,4-oxadiazole], for which the AC50 is > 5000 nM.
With `Cc1ccc2cc([C@@H]3c4nc[nH]c4CCN3C(=O)c3nc(C(F)F)nn3C)nn2c1` [Example 2403, (S)-(3-(difluoromethyl)-1-methyl-1H-1,2,4-triazol-5-yl)(4-(6-methylpyrazolo[1,5-a]pyridin-2-yl)-6,7-dihydro-1H-imidazo[4,5-c]pyridin-5(4H)-yl)methanone], the AC50 lay in the range of 1000 to 5000 nM.
Same read-out and setting: then `O=C(c1nc2ccccc2o1)N1CCc2[nH]cnc2[C@@H]1c1cc2c(F)cccn2n1` [Example 2051, (R)-benzo[d]oxazol-2-yl(4-(4-fluoropyrazolo[1,5-a]pyridin-2-yl)-1,4,6,7-tetrahydro-5H-imidazo[4,5-c]pyridin-5-yl)methanone], with > 5000 nM.
On the same count and under the same terms, then `Cc1cccn2nc([C@@H]3c4nc[nH]c4CCN3C(=O)c3nnc(C4CC4)s3)cc12` [Example 1997, (S)-(5-cyclopropyl-1,3,4-thiadiazol-2-yl)(4-(4-methylpyrazolo[1,5-a]pyridin-2-yl)-1,4,6,7-tetrahydro-5H-imidazo[4,5-c]pyridin-5-yl)methanone], with 500 to 1000 nM; and `Cc1nnc(N2CCc3[nH]cnc3[C@H]2c2cc3c(Cl)cccn3n2)o1` [Example 2456, (S)-2-(4-(4-chloropyrazolo[1,5-a]pyridin-2-yl)-6,7-dihydro-1H-imidazo[4,5-c]pyridin-5(4H)-yl)-5-methyl-1,3,4-oxadiazole], with 1000 to 5000 nM.
Regarding `CC(F)(F)c1nnc(N2CCc3[nH]cnc3[C@H]2c2cc3ccccn3n2)o1` [Example 2191, (S)-2-(1,1-difluoroethyl)-5-(4-(pyrazolo[1,5-a]pyridin-2-yl)-1,4,6,7-tetrahydro-5H-imidazo[4,5-c]pyridin-5-yl)-1,3,4-oxadiazole], the AC50 lay within 500 to 1000 nM.

The same assay, now with this note: A375 cells expressing human R408W PAH; 24 hrs compound incubation; 13C-Tyrosine by LC-MS; average where tested multiple times; read-out: AC50.
Consider `Cn1cnc(-c2nnc(C(=O)N3CCc4[nH]cnc4[C@@H]3c3cc4c(C(F)(F)F)cccn4n3)o2)c1` [Example 935, (R)-(5-(1-methyl-1H-imidazol-4-yl)-1,3,4-oxadiazol-2-yl)(4-(4-(trifluoromethyl)pyrazolo[1,5-a]pyridin-2-yl)-6,7-dihydro-1H-imidazo[4,5-c]pyridin-5(4H)-yl)methanone], for which the AC50 was > 5000 nM.
As to `Cc1nc(C(C)(C)F)oc1C(=O)N1CCc2[nH]cnc2[C@H]1c1cc2c(C(F)(F)F)cccn2n1` [Example 1262, (S)-(2-(2-fluoropropan-2-yl)-4-methyloxazol-5-yl)(4-(4-(trifluoromethyl)pyrazolo[1,5-a]pyridin-2-yl)-6,7-dihydro-1H-imidazo[4,5-c]pyridin-5(4H)-yl)methanone], the AC50 was < 500 nM.
Still for that read-out and setting: then `O=C(c1ocnc1C(F)F)N1CCc2[nH]cnc2[C@H]1c1cc2cccc(F)n2n1` [Example 1202, (S)-(4-(difluoromethyl)oxazol-5-yl)(4-(7-fluoropyrazolo[1,5-a]pyridin-2-yl)-6,7-dihydro-1H-imidazo[4,5-c]pyridin-5(4H)-yl)methanone], with < 500 nM.
Still for that read-out and setting: to `COc1ccc2c(C(=O)N3CCc4[nH]cnc4[C@@H]3c3cc4cccc(C)n4n3)cnn2c1` [Example 1719, (R)-(6-methoxypyrazolo[1,5-a]pyridin-3-yl)(4-(7-methylpyrazolo[1,5-a]pyridin-2-yl)-6,7-dihydro-1H-imidazo[4,5-c]pyridin-5(4H)-yl)methanone] belongs 1000 to 5000 nM.
Turning to `Cn1nccc1-c1nnc(C(=O)N2CCc3[nH]cnc3[C@@H]2c2cc3cccc(F)n3n2)o1` [Example 1527, (R)-(4-(7-fluoropyrazolo[1,5-a]pyridin-2-yl)-6,7-dihydro-1H-imidazo[4,5-c]pyridin-5(4H)-yl)(5-(1-methyl-1H-pyrazol-5-yl)-1,3,4-oxadiazol-2-yl)methanone], the AC50 was > 5000 nM.
Still for that read-out and setting: to `CC(F)(F)c1ncc(C(=O)N2CCc3[nH]cnc3[C@H]2c2cc3ccccn3n2)s1` [Example 612, (S)-(2-(1,1-difluoroethyl)thiazol-5-yl)(4-(pyrazolo[1,5-a]pyridin-2-yl)-6,7-dihydro-1H-imidazo[4,5-c]pyridin-5(4H)-yl)methanone] belongs < 500 nM; to `Cc1cccn2nc([C@H]3c4nc[nH]c4CCN3C(=O)c3cnn4ccccc34)cc12` [Example 1287, (R)-(4-(4-methylpyrazolo[1,5-a]pyridin-2-yl)-6,7-dihydro-1H-imidazo[4,5-c]pyridin-5(4H)-yl)(pyrazolo[1,5-a]pyridin-3-yl)methanone], 500 to 1000 nM.
Same read-out and setting: to `O=C(c1ocnc1C(F)F)N1CCc2[nH]cnc2[C@H]1c1cc2cccc(C(F)(F)F)n2n1` [Example 1154, (S)-(4-(difluoromethyl)oxazol-5-yl)(4-(7-(trifluoromethyl)pyrazolo[1,5-a]pyridin-2-yl)-6,7-dihydro-1H-imidazo[4,5-c]pyridin-5(4H)-yl)methanone] belongs < 500 nM; to `O=C(c1nnc(-c2ccc(C(F)(F)F)cn2)o1)N1CCc2[nH]cnc2[C@@H]1c1cc2c(F)cccn2n1` [Example 878, (R)-(4-(4-fluoropyrazolo[1,5-a]pyridin-2-yl)-6,7-dihydro-1H-imidazo[4,5-c]pyridin-5(4H)-yl)(5-(5-(trifluoromethyl)pyridin-2-yl)-1,3,4-oxadiazol-2-yl)methanone], > 5000 nM.
Still for that read-out and setting: then `O=C(c1cnn2ccccc12)N1CCc2[nH]cnc2[C@H]1c1cc2c(C(F)(F)F)cccn2n1` [Example 1270, (S)-pyrazolo[1,5-a]pyridin-3-yl(4-(4-(trifluoromethyl)pyrazolo[1,5-a]pyridin-2-yl)-6,7-dihydro-1H-imidazo[4,5-c]pyridin-5(4H)-yl)methanone], with < 500 nM; and `Cn1ccc(-c2ccc3c(C(=O)N4CCc5[nH]cnc5[C@@H]4c4cc5c(C(F)(F)F)cccn5n4)cnn3c2)n1` [Example 1597, (R)-(6-(1-methyl-1H-pyrazol-3-yl)pyrazolo[1,5-a)pyridin-3-yl)(4-(4-(trifluoromethyl)pyrazolo[1,5-a]pyridin-2-yl)-6,7-dihydro-1H-imidazo[4,5-c]pyridin-5(4H)-yl)methanone], with > 5000 nM; and `Cn1nc(C(F)F)cc1C(=O)N1CCc2[nH]cnc2[C@H]1c1cc2c(C(F)(F)F)cccn2n1` [Example 1370, (S)-(3-(difluoromethyl)-1-methyl-1H-pyrazol-5-yl)(4-(4-(trifluoromethyl)pyrazolo[1,5-a]pyridin-2-yl)-6,7-dihydro-1H-imidazo[4,5-c]pyridin-5(4H)-yl)methanone], with < 500 nM.
Turning to `CC(C)(F)c1nnc(C(=O)N2CCc3[nH]cnc3[C@@H]2c2cc3c(F)cccn3n2)o1` [Example 1025, (R)-(5-(2-fluoropropan-2-yl)-1,3,4-oxadiazol-2-yl)(4-(4-fluoropyrazolo[1,5-a]pyridin-2-yl)-6,7-dihydro-1H-imidazo[4,5-c]pyridin-5(4H)-yl)methanone], the AC50 lay within 1000 to 5000 nM.
In the case of `CC(C)(O)c1nc(C(F)F)c(C(=O)N2CCc3[nH]cnc3[C@H]2c2cc3cccc(Cl)n3n2)o1` [Example 960, (S)-(4-(7-chloropyrazolo[1,5-a]pyridin-2-yl)-6,7-dihydro-1H-imidazo[4,5-c]pyridin-5(4H)-yl)(4-(difluoromethyl)-2-(2-hydroxypropan-2-yl)oxazol-5-yl)methanone], the AC50 lay within 500 to 1000 nM.

A word on the AC50: it is the midpoint of the concentration-response curve, whichever way the signal moves.
